Test results: patent US20260034192A1 (University of Saskatchewan, priority 2022, published 2026)
Marks after values point to notes of the source that are not given here. Square brackets hold non-standard residues; d marks the D form. Peptide text beside a SMILES is read from it. dPhe(4-Cl) = N[C@H](Cc1ccc(Cl)cc1)C(=O)O; d2Nal = N[C@H](Cc1ccc2ccccc2c1)C(=O)O; dCit = NC(=O)NCCC[C@@H](N)C(=O)O; d3Pal = N[C@H](Cc1cccnc1)C(=O)O

Tests used:
Format in all cases: in vivo, cattle
[1] = test system: pubertal Hereford-cross beef heifers; assay: Two 1.5 mg Cetrorelix injections at pre-selection, growing or late-static phase in beef heifers (Example 4)
Description: The study was conducted on pubertal Hereford-cross beef heifers (n=32) at the U. Sask. Livestock and Forage Centre of Excellence (LFCE). Initial transrectal ultrasonography was performed to confirm the puberty by the presence or absence of a corpus luteum (CL). Animals were also weighed at this time. Animals with a functional CL were administered an intramuscular (im) injection of prostaglandin F2a analog (cloprostenol) to cause CL regression and ovulation. Daily ultrasonography was performed to detect ovulation and to record the number, size and location of follicles and CL in both ovaries. The day of emergence of a follicular wave was initially estimated by sudden increase in the number of 3-4 mm follicles and confirmed retrospectively as the day on which the dominant follicle was first detected at 4 to 5 mm in size (defined as Day 0). Follicular and hormonal data (see next section for endpoints) from all animals was collected for one complete inter-ovulatory interval.
Animals were randomized into 4 groups based on the day of ovulation. Group 1 (control group) heifers were given 3 mL normal saline (sham-treated negative control; n=3 on Days 1 and 2, n=3 on Days 3 and 4, n=2 on Days 6 and 7). Group 2 heifers were given 1.5 mg Cetrorelix on Days 1 and 2 (pre-selection dominant follicle phase; n=8), Group 3 heifers were given Cetrorelix on Days 3 and 4 (dominant follicle growing phase; n=8), and Group 4 heifers were given Cetrorelix on Days 6 and 7 (dominant follicle late-static/early regressing phase; n=8). The dose of Cetrorelix (1.5 mg per treatment), route of administration (intramuscular) and duration of treatment (i.e., 2 doses at 24 hr interval) were selected based on Example 2 and previous studies in cattle (Ulker et al, 2001).
Changes in the size of the dominant follicle, largest subordinate follicle and CL, and the number of follicles in 3-5, 6-8, and 9+mm size categories were recorded daily from initial ovulation to the first post-treatment ovulation. The inter-wave interval was determined based on duration between emergence of successive follicular waves.
Blood samples were also collected every 12 hours by jugular venipuncture for measurement of plasma LH concentrations from −36 hr to +72 hr of treatment. Blood samples were collected daily for measurement of plasma progesterone concentrations from 1 day before to 7 days after treatment. A Proc Mixed repeated measures analysis of variance (SAS version 9.4) was performed to compare serial data (follicle size, follicle numbers, CL size, plasma LH, plasma progesterone).

[2] = test system: Brahman x Angus cross beef post-partum cows; assay: Field trial of fixed-time AI after cetrorelix versus estradiol protocol (Example 8)
Description: This field trial was conducted by a faculty member of the Federal University of Santa Maria at a client beef farm in Brazil in December 2022. A total of 216 Brahman x Angus cross beef post-partum cows were used for this experiment. Cows were divided into two treatment groups ([…]) and were either given cetrorelix 3 mg i/m or estradiol benzoate on a random day of the cycle (defined as Day 0). An intravaginal progesterone device (CIDR) was placed in all cows on Day 0. The CIDR devices were removed on Day 8 and animals were given prostaglandin F2a analog and equine choriogonadotropin (eCG). Fixed-time artificial insemination was done 54 hrs after CIDR removal and animals were given GnRH at this time. Pregnancy diagnosis was performed on Day 30 after artificial insemination. Transrectal ultrasound examinations were performed on Day 0, Day 8, Day 10 and Day 40.

[3] = test system: pubertal Hereford-cross beef heifers; assay: Cetrorelix in luteal versus preovulatory phase, hCG ovulation challenge in heifers (Example 6); conditions: high and low progesterone, 3 mg i/m
Description: Experimental design: The study was conducted on pubertal Hereford-cross beef heifers (n=24) at the U. Sask. Livestock and Forage Centre of Excellence (LFCE) using a 2×2 factorial design (Table 15). Initial transrectal ultrasonography was performed to confirm post-pubertal or post-partum cyclicity by the presence or absence of a corpus luteum (CL). Animals with a CL were weighed and treated with prostaglandin F2a analog as in Example 4 and monitored by ultrasonography to detect ovulation. Day of ovulation was considered the day of wave emergence (defined as Day 0).
On the day of ovulation, heifers were randomized into 4 groups. Those in the preovulatory groups were given prostaglandin on Days 4 and 4.5 of the wave while those in the luteal groups were allowed to maintain the CL (i.e., no prostaglandin treatment). Treatments was given as outlined in Table 16 and schematic time line FIG. 8. Cetrorelix groups were given 3 mg cetrorelix i/m on Day 5. All animals were treated with hCG (Chorulon, 1500 IU, im) on Day 7 of the wave (i.e., 48 hr after Cetrorelix/saline treatment) to determine the ovulatory potential of the dominant follicle.
Blood samples were taken 24 hr after cetrorelix or no treatment (control groups) for measurement of plasma concentrations of LH and progesterone. Data was analyzed in a similar manner to Example 4.

[4] = 30 days after fixed-time artificial insemination

For CC(=O)N[C@H](Cc1ccc2ccccc2c1)C(=O)N[C@H](Cc1ccc(Cl)cc1)C(=O)N[C@H](Cc1cccnc1)C(=O)N[C@@H](CO)C(=O)N[C@@H](Cc1ccc(O)cc1)C(=O)N[C@H](CCCNC(N)=O)C(=O)N[C@@H](CC(C)C)C(=O)N[C@@H](CCCNC(=N)N)C(=O)N1CCC[C@H]1C(=O)N[C@H](C)C(N)=O [Cetrorelix, N-acetyl-3-(2-naphthyl)-D-alanyl-4-chloro-D-phenylalanyl-3-(3-pyridyl)-D-alanyl-L-seryl-L-tyrosyl-D-citrullyl-L-leucyl-L-arginyl-L-prolyl-D-alaninamide] (Ac-[d2Nal][dPhe(4-Cl)][d3Pal]SY[dCit]LRP[dA]-NH2), the “Days from treatment to next wave emergence” value (from here on “Days … to next wave emergence”) ([1]; 1.5 mg i/m on Day 1-2 of wave) was 5.9 ± 0.4 days, the “Days from treatment to next wave's dominant follicle at 9 mm” value (“Days from treatment … at 9 mm” below) ([1]; 1.5 mg i/m on Day 1-2 of wave) was 9.1 ± 0.8 days and the “Interovulatory Interval” value ([1]; 1.5 mg i/m on Day 1-2 of wave) was 21.5 ± 1.4. For the same compound, the “Interwave Interval” value ([1]; 1.5 mg i/m on Day 1-2 of wave) was 6.9 ± 0.4^b, the “Largest Dominant Follicle Diameter (mm)” value ([1]; 1.5 mg i/m on Day 1-2 of wave) was 10.3 ± 0.6^b mm and the “Largest Subordinate Follicle Diameter (mm)” value ([1]; 1.5 mg i/m on Day 1-2 of wave) was 7.1 ± 0.5^b mm. For the same compound, the “Number of Follicles at WE” value ([1]; 1.5 mg i/m on Day 1-2 of wave) was 19.3 ± 2.0, the “Time to Largest Dominant (days)” value ([1]; 1.5 mg i/m on Day 1-2 of wave) was 6.3 ± 0.9^ab days and the “Time to Largest Subordinate” value ([1]; 1.5 mg i/m on Day 1-2 of wave) was 3.1 ± 0.6 days. The “Length of Wave 2” value ([1]; 1.5 mg i/m on Day 1-2 of wave, in d (unit assumed)) was 9.3 ± 0.7, the “Days … to next wave emergence” value ([1]; 1.5 mg i/m on Day 3-4 of wave) was 5.8 ± 0.5 days and the “Days from treatment … at 9 mm” value ([1]; 1.5 mg i/m on Day 3-4 of wave) was 9.5 ± 0.5 days. The “Interovulatory Interval” value ([1]; 1.5 mg i/m on Day 3-4 of wave) was 20.3 ± 0.4, the “Interwave Interval” value ([1]; 1.5 mg i/m on Day 3-4 of wave) was 8.9 ± 0.4^ab and the “Largest Dominant Follicle Diameter (mm)” value ([1]; 1.5 mg i/m on Day 3-4 of wave) was 10.6 ± 0.4^b mm. For the same compound, the “Largest Subordinate Follicle Diameter (mm)” value ([1]; 1.5 mg i/m on Day 3-4 of wave) was 6.9 ± 0.4^b mm, the “Number of Follicles at WE” value ([1]; 1.5 mg i/m on Day 3-4 of wave) was 20.9 ± 2.7 ^ and the “Time to Largest Dominant (days)” value ([1]; 1.5 mg i/m on Day 3-4 of wave) was 4.6 ± 0.6^b days. For the same compound, the “Time to Largest Subordinate (days)” value ([1]; 1.5 mg i/m on Day 3-4 of wave) was 4.0 ± 1.0^ days, the “Length of Wave 2” value ([1]; 1.5 mg i/m on Day 3-4 of wave, in d (unit assumed)) was 9.1 ± 0.8 and the “Days … to next wave emergence” value ([1]; 1.5 mg i/m on Day 6-7 of wave) was 4.3 ± 0.6 days. For the same compound, the “Days from treatment … at 9 mm” value ([1]; 1.5 mg i/m on Day 6-7 of wave) was 8.3 ± 0.7 days, the “Interovulatory Interval” value ([1]; 1.5 mg i/m on Day 6-7 of wave) was 19.6 ± 0.6 and the “Interwave Interval” value ([1]; 1.5 mg i/m on Day 6-7 of wave) was 10.3 ± 0.6^a. The “Largest Dominant Follicle Diameter (mm)” value ([1]; 1.5 mg i/m on Day 6-7 of wave) was 12.9 ± 0.4^a mm, the “Largest Subordinate Follicle Diameter (mm)” value ([1]; 1.5 mg i/m on Day 6-7 of wave) was 7.9 ± 0.6^b mm and the “Length of Wave 2” value ([1]; 1.5 mg i/m on Day 6-7 of wave) was 8.3 ± 0.5. For the same compound, the “Number of Follicles at WE” value ([1]; 1.5 mg i/m on Day 6-7 of wave) was 15.8 ± 1.1, the “Time to Largest Dominant (days)” value ([1]; 1.5 mg i/m on Day 6-7 of wave) was 6.8 ± 0.9^ab days and the “Time to Largest Subordinate” value ([1]; 1.5 mg i/m on Day 6-7 of wave) was 3.9 ± 0.5 days. The “Wave emergence after the first Cetrorelix treatment irrespective of phase of dominant follicle” value ([1]; two 1.5 mg (about 3.75 ug/kg) i/m doses 24 hr apart, groups combined) was 5.3 ± 0.3 days, the “Next wave dominant follicle ready for ovulation” value ([1]; two 1.5 mg i/m doses) was 9 days and the “Conception rate: Percent” value [2, 4] was 42.6%. For the same compound, the “Conception rate: Pregnant/AI” value [2, 4] was 46/108*, the “Conception rate: Percent” value ([2]; 30 days after fixed-time artificial insemination, listed as cetrorelix) was 42.6% and the “Size of the dominant follicle on Day 8 (at PGF)” value ([2]; cetrorelix 3 mg i/m or estradiol benzoate on Day 0, CIDR removal Day 8, in mm) was 11.04 ± 0.48. The “Size of the dominant follicle on Day 10 (at AI)” value ([2]; cetrorelix 3 mg i/m or estradiol benzoate on Day 0, in mm) was 12.72 ± 0.65 and the “Time for which dominant/pre-ovulatory follicle maintains ovulatory potential after cetrorelix treatment” value [3] was “at least 48 hr”.
